From patent US6114572A, “Substituted phenols and thiophenols useful as antioxidant agents” (priority 1997, dated 2000)
Read-outs that look alike come from different tables or passages of the source.

Columns and labels:
[1] = test system: VCAM-1; settings: vascular endothelial cells; Mauri, N. et al.; cited from earlier work
[2] = test system: ICAM-1; settings: vascular endothelial cells; Mauri, N. et al.; cited from earlier work
[3] = Animal parameters (food, body weight, liver weight, mortality) in male Sprague-Dawley rats; format: in vivo; settings: for mortality at 96 h: po, read-out: mortality (deaths per group); for mortality at 96 h / body wt., percent of control: rat
From the text: (§1) A typical experiment consists of 4-6 groups of rats (N=5 per group) with 1 group being a control which receives no MDL compound and the other groups being treated with 0.3% MDL compound. Some of the compounds are either repeated at 0.3% or evaluated again at the lower dose of 0.1%. House Male Sprague-Dawley rats, 50-100 g, (Harlan Laboratories, Indianapolis, Ind.) in groups of 5, feeding ad libitum water and Purina Rodent chow (#5002) with or without MDL compound as a dietary admixture for 4 days. Make dietary admixtures (0.3%) by mixing 1.2 grams of an MDL compound with 400 grams of Purina rodent chow (#5002). Mix the MDL compound with approximately 50 grams of food using a mortar and pestle. This is added to the remainder of the food and mixed for 3 hours on a rotary mixer. In the morning of day 5, anesthetize non-fasted rats with carbon dioxide, and collect blood by cardiac puncture. Sacrifice rats by cervical dislocation. Record body weights and liver weights in grams. Record food consumption as grams·day^-1 ·rat^-1. Deaths are recorded as mortality. Use aliquots of fresh serum for clinical chemistries, thiobarbituric acid reactive substances (TBARS) and conjugated diene measurements. Freeze aliquots of serum (~0.5 mL) and whole livers at -20° C. for compound and metabolite concentration determination at a later time.

[4] = test system: oxidation of lipids; assay: Conjugated diene lag phase determination in rat serum; format: in vivo, Sprague-Dawley rat; settings: rat pooled serum, 0.3% in diet, 4 days; mean of 2 determinations; not normalized to control
From the text: as §1, with “Use aliquots of fresh serum for clinical chemistries, thiobarbituric acid reactive substances (TBARS) and conjugated diene measurements. Freeze aliquots of serum (~0.5 mL) and whole livers at -20° C. for compound and metabolite concentration determination at a later time.” left out
Conjugated diene lag phase is another indicator of the oxidation of lipids. […] Measure the absorbances of all cuvettes and set the instrument baseline to zero using the lowest absorbing sample. […] Record the absorbance of each cuvette at 2 min intervals for a period of 840 min. […]

[5] = test system: oxidation of serum lipids; assay: TBARS assay (oxidation of serum lipids) in male Sprague-Dawley rats; format: in vivo; settings: feed or water, 96 h, rat serum, 4 days, N = 5, CuSO4-initiated, 3 hr, read-out: TBARS, percent of control
Description: as §1, with “Some of the compounds are either repeated at 0.3% or evaluated again at the lower dose of 0.1%. House Male Sprague-Dawley rats, 50-100 g, (Harlan Laboratories, Indianapolis, Ind.) in groups of 5, feeding ad libitum water and Purina Rodent chow (#5002) with or without MDL compound as a dietary admixture for 4 days. Make dietary admixtures (0.3%) by mixing 1.2 grams of an MDL compound with 400 grams of Purina rodent chow (#5002).” left out
In this assay the oxidation of serum lipids is initiated with CuSO4, resulting in the formation of aldehydes, such as malondialdehyde (MDA). Upon incubation with thiobarbituric acid, the absorbance of the aldehydes can be detected at 530-540 nm. […] Measure TBARS as follows: mix 100 μL of serum with 400 μL of a 5 mmol CuSO4 solution and incubate at 37° C. for 3 hr. Stop the reactions by addition of 1.0 mL of 20% trichloroacetic acid. […] Centrifuge samples briefly to pellet undissolved material, and transfer the supernatants to a 96-well microtiter plate. Measure absorbances at 540 nm using a Biotek model EL311 microplate reader. The nmoles of MDA produced are calculated from a standard curve of 0 to 10 nmoles of MDA prepared from malonaldehyde bis(dimethylacetal). Serum samples from treated rats are compared to serum samples from control rats that received no MDL compound.

[6] = test system: Male Sprague-Dawley Rats; assay: Serum clinical chemistries in male Sprague-Dawley rats; format: in vivo
Description: Measurement of Antioxidant Activity and Bioavailability of Compounds of Formula (1) By In Vivo Screening in Male Sprague-Dawley Rats
as §1, with “Some of the compounds are either repeated at 0.3% or evaluated again at the lower dose of 0.1%. House Male Sprague-Dawley rats, 50-100 g, (Harlan Laboratories, Indianapolis, Ind.) in groups of 5, feeding ad libitum water and Purina Rodent chow (#5002) with or without MDL compound as a dietary admixture for 4 days. Make dietary admixtures (0.3%) by mixing 1.2 grams of an MDL compound with 400 grams of Purina rodent chow (#5002).” left out
Allow blood to clot at room temperature for 30 minutes. Obtain serum after centrifugation for 10 min at 4° C. at 3000 rpm in a Beckman J-6M/E centrifuge with a JS-4.2 rotor. […] Calculate ALP, ALT, and AST as units/L. Calculate cholesterol, triglycerides, and glucose as mg/dL.

[7] = HPLC quantitation of compound and metabolite concentration in rat serum and liver; settings: in vivo; for concentration at 96 h: po, 0.3% in diet, 4 days
From the text: as §1
Determine serum and liver concentrations of parent compound and the metabolites, bisphenol and diphenoquinone, by reverse phase HPLC using a Waters 990 Powerline system. Homegenize livers (1 gram samples) with 5.0 mL PBS, pH 7.4, using a Polytron tissue homogenizer at setting 5 for 20-30 seconds. Extract serum or liver homogenates as follows: add 100 μL of either serum or homogenate to 2.0 mL diethyl ether:ethanol (3:1) while vortexing the tube. Cap the sample tubes and centrifuge for 10 min at 5° C. at 3500 rpm in a Beckman GPKR centrifuge with a GH 3.7 rotor. Transfer the supernatants to clean tubes and dry under N2. Reconstitute samples with 200 μL of acetonitrile:hexane:0.1 M ammonium acetate (90:6.5:3.5, by vol.). Then, inject 100 μL onto a Waters Deltapak C18-300 Å column, and elute with an 83% acetonitrile:17% water mobile phase at a flow rate of 1.5 mL/min. Record absorbances at the wavelengths of 240, 254, and 420nm. Calculate compound concentrations from known quantities of authentic parent compounds after correction for recovery. […]. Calculate concentrations as μg/mL of serum and μg/g of liver.

[8] = Animal parameters (food, body weight, liver weight) in cholesterol-fed rabbits; format: in vivo, New Zealand White rabbit; settings: 0.4% in diet, 7 days, N = 5
From the text: (§2) Perform five independent experiments in the following manner. Each study has a control group and 1-5 groups treated with MDL compound (N=5 per group). Feed Female New Zealand White rabbits (Hazelton, ~2.0-2.3 kg) 0.2% cholesterol enriched rabbit chow (Purina #5322) with or without 0.4% MDL compound. Solubilize the MDL compounds in 100% ethanol. Spray the chow with the MDL mixtures and allow to dry overnight in a chemical fume hood. Spray control chow with ethanol. Feed rabbits 100 grams food per day for 7 days (0.6% MDL 103,491 were fed for 14 days); make available water ad libitum. On day 7, bleed (~2 mL) rabbits (fasted overnight) from a marginal ear vein. Euthanize rabbits by carbon dioxide overdose. Record the total body and liver weights in grams. Record food as grams·days^-1 ·rabbits^-1. Use aliquots of fresh serum for clinical chemistries, lipoprotein cholesterol determination, thiobarbituric acid reactive substances (TBARS) and compound and metabolite concentrations in serum. Freeze livers (~5 gram aliquots) at -20° C. for compound and metabolite concentration determination at a later time.

[9] = test system: Cholesterol-Fed Female New Zealand White Rabbits; assay: Serum cholesterol, lipoprotein cholesterol and triglycerides in cholesterol-fed rabbits; format: in vivo, New Zealand White rabbit; settings: rabbit serum, 0.4% in diet, 7 days, N = 5, fasted overnight
Description: Perform five independent experiments in the following manner. […] Solubilize the MDL compounds in 100% ethanol. Spray the chow with the MDL mixtures and allow to dry overnight in a chemical fume hood. Spray control chow with ethanol. […] On day 7, bleed (~2 mL) rabbits (fasted overnight) from a marginal ear vein. Euthanize rabbits by carbon dioxide overdose. Record the total body and liver weights in grams. Record food as grams·days^-1 ·rabbits^-1. Use aliquots of fresh serum for clinical chemistries, lipoprotein cholesterol determination, thiobarbituric acid reactive substances (TBARS) and compound and metabolite concentrations in serum. Freeze livers (~5 gram aliquots) at -20° C. for compound and metabolite concentration determination at a later time.
Allow blood to clot at room temperature for 30 minutes. Obtain serum after centrifugation for 10 min at 5° C. at 3000 rpm in a Beckman GPKR centrifuge with a GH rotor. […] Calculate cholesterol and triglycerides as mg/dL.
Separate lipoprotein fractions (very low density lipoprotein, VLDL, low density lipoprotein, LDL and high density lipoprotein, HDL) on a Sepharose 6HR column (1×30 cm, Pharmacia) attached to a Waters Powerline HPLC system. Inject serum (50 μL) onto the column and elute with phosphate buffered saline, pH 7.4, at a flow rate of 0.5 mL/min. […] Measure absorbance at 500 nm. The lipoprotein subfractions are quantitated as follows:

[10] = test system: oxidation of serum lipids; assay: TBARS assay (oxidation of serum lipids) in cholesterol-fed rabbits; format: in vivo, New Zealand White rabbit; settings: rabbit serum, 0.4% in diet, 7 days, N = 5, CuSO4-initiated, 5 hr
From the text: as §2, with “Freeze livers (~5 gram aliquots) at -20° C. for compound and metabolite concentration determination at a later time.” left out
TBARS are a qualitative indication of the oxidation of lipids in a sample. […] Upon incubation with thiobarbituric acid, the absorbance of the aldehydes can be detected at 530-540 nm. […] Measure absorbances at 540 nm using a Biotek model EL311 microplate reader. The nmoles of MDA produced are calculated from a standard curve of 0 to 10 nmoles of MDA prepared from malonaldehyde bis(dimethylacetal). […]

[11] = in vivo, 0.3% in diet, 4 days, N = 5
[12] = rat serum, 0.3% in diet, 4 days, N = 5
[13] = mean N = 5, read-out: Serum Parent (parent compound concentration)
[14] = mean N = 5, read-out: Liver Parent (parent compound concentration)

Compound	inhibition of cytokine-induced expression of VCAM-1 [1]	inhibition of cytokine-induced expression of ICAM-1 [2]	food (grams eaten per day per rat), percent of control ([3]; in vivo)	mortality at 96 h [3, 11]	body wt., percent of control ([3]; 0.3% in diet, 4 days, N = 5)	response vs control in vivo at 0.3 % in diet [5]	ALP (alkaline phosphatase), percent of control [6, 12]	ALT (alanine aminotransferase), percent of control [6, 12]	AST (aspartate aminotransferase), percent of control [6, 12]	GLUC (glucose), percent of control ([6]; rat, in vivo)	Liver Bis (bisphenol concentration) ([7]; 5760 min)	Liver Quin (diphenoquinone concentration) ([7]; 5760 min)	Serum Bis (bisphenol concentration) ([7]; 5760 min)	Serum Quin (diphenoquinone concentration) ([7]; 5760 min)	concentration at 96 h [7, 13]	concentration at 96 h [7, 14]	other results
CC(=O)N[C@@H](CS)C(=O)O [N-acetylcysteine]	inhibit cytokine-induced expression of VCAM-1	not ICAM-1															
CC(C)=CCCC(C)CCOc1ccc(O)c(C(C)(C)C)c1 (centres unmarked) [105,411]			95%	0%	101%	29%	76%	122%	87%	96%	0	0	0	0	1100 ng/mL		CONJ. DIENE (conjugated diene lag phase) [4]: 400 min; Liver Parent (parent compound concentration) ([7]; 5760 min): 0
CC(C)=CCC[C@H](C)CCOc1cc(C(C)(C)C)c(O)c(C(C)(C)C)c1 [103,294]				0%	101%	18%	124%		88%		0	0	0	0	21700 ng/mL	64600 ng/g	food (grams eaten per day per rat), percent of control ([3]; 0.3% in diet, 4 days, N = 5): 108%; GLUC (glucose), percent of control [6, 12]: 103%; ALT (alanine aminotransferase), percent of control ([6]; rat, in vivo): 132%; food (grams eaten per day per rabbit), percent of control [8]: 103%; body wt., percent of control ([8]; rabbit): 100%; lw/bw (liver weight/body weight), percent of control ([8]; rabbit): 105%; LDL cholesterol, percent of control [9]: 82%; chol tot. (total cholesterol), percent of control [9]: 94%; TBARS, percent of control [10]: 35%
S=C(S)N1CCCC1 [pyrollidine dithiocarbamate]	inhibit cytokine-induced expression of VCAM-1	not ICAM-1															
CC(C)CCCC(C)CCOc1ccc(O)c(C(C)(C)C)c1 (centres unmarked) [104,191]			76%	0%		20%	81%	149%	146%	106%	0	0	0	0	6900 ng/mL	16100 ng/g	body wt., percent of control ([3]; in vivo): 92%
